The values that follow come from patent US20210100777A1, “HEAT SHOCK PROTEIN (HSP) INHIBITION AND MONITORING EFFECTIVENESS THEREOF” (H. LEE MOFFITT CANCER CENTER AND RESEARCH INSTITUTE, INC., priority 2013, published 2021).

Each structure is given as a SMILES string.

The assay has as its system heat shock proteins (HSPs) in RPMI-8226 multiple myeloma cells. Put plainly: LC-MRM quantification of HSP expression before and 24 hours after 17-DMAG (Example 1). The assay is classed as cell-based, human. The settings on record: 106 nM 17-DMAG. The method, then:
Monitoring HSPs in multiple myeloma cells. RPMI-8226 multiple myeloma cells were cultured in suspension as described above with the addition of 100 units/mL penicillin/streptomycin. Stock 17-dimethylaminoethylamino-17-demethoxy-geldanamycin (17-DMAG) was dissolved in DMSO at a concentration of 10 mM. Based on prior IC50 measurements, the RPMI-8226 cells were treated with 106 nM 17-DMAG for 24 hours.
RPMI-8226 cells (n=10^6) were lysed using […] aqueous 8M urea with 100 mM ammonium bicarbonate. Protein concentration was measured by the Bradford assay and 0.38 μg of protein (equivalent to 3,750 cells) was injected for LC-MRM analysis of control and drug-treated samples. The proteins were reduced with 2 mM TCEP, alkylated with 20 mM IAA, and digested overnight in solution with trypsin at 37° C. Corresponding stable-isotope-labeled internal standard peptides were added to the samples after digestion. Then, peptides were extracted using pipette tips packed with C18 reversed-phase resin (Ziptip, Millipore; Billerica, Mass.) and concentrated to dryness by vacuum centrifugation (Speedvac, Thermo), and resuspended in aqueous 2% ACN with 0.1% formic acid prior to MS. LC-MRM was performed as described above. Quantification is achieved by using the sum of the peak areas for all detected transitions using QuanBrowser (Xcalibur, Thermo, San Jose, Calif.) or Skyline. The ratio of peak area of the endogenous peptide over corresponding internal standard was calculated for each peptide in the sample to enable absolute and relative quantification. Relative protein expression after treatment was normalized to the pretreatment control for each cell line and plotted to show the change in expression after drug treatment. Bubble plots were created using the SigmaPlot 10 (SPSS).

As to `CO[C@H]1/C=C\C=C(/C)C(=O)NC2=CC(=O)C(NCCN(C)C)=C(C[C@@H](C)C[C@H](OC)[C@H](O)[C@@H](C)/C=C(\C)[C@@H]1OC(N)=O)C2=O` [17-DMAG, 17-Dimethylaminoethylamino-17-demethoxygeldanamycin], the “H90B2 Post-Treatment” value was 25.3 amol/cell. The “HSPB3 Post-Treatment” value (peptide ADLINNLR) is given as 0.14 amol/cell. Besides, the “HSP74 Post-Treatment” value (peptide AFSDPFVEAEK) was 0.89 amol/cell. Where the note is “peptide ALLFIPR”, the “HS90B Post-Treatment” value is given as 14.5 amol/cell. The “HS90A Post-Treatment” value (peptide ALLFVPR) worked out at 20.9 amol/cell. In addition, for the setting “peptide EIAEAYLGGK”, the “HSP72 Post-Treatment” value is 0.39 amol/cell. For the same compound, the “HSP7C Post-Treatment” value (peptide GTLDPVEK) worked out at 14.9 amol/cell. In addition, the “CDC37 Post-Treatment” value (peptide LQAEAQQLR) came to 0.91 amol/cell. Besides, the “HSP71 Post-Treatment” value (peptide NQVALNPQNTVFDAK) is 0.051 amol/cell. Further, under “peptide VEIIANDQGNR”, the “GRP78 Post-Treatment” value is given as 110 amol/cell. Moreover, for the setting “post- vs pre-treatment”, the “CDC37 Ratio” value amounted to 1.07, the “GRP78 Ratio” value came to 2.25, the “H90B2 Ratio” value stood at 1.57 and the “HS90A Ratio” value worked out at 1.87. Under “post- vs pre-treatment”, the “HS90B Ratio” value is 1.84, the “HSP7C Ratio” value is on record as 1.93, the “HSP71 Ratio” value came out at 3.95 and the “HSP72 Ratio” value amounted to 1.21. Moreover, for the setting “post- vs pre-treatment”, the “HSP74 Ratio” value is 1.23 and the “HSPB3 Ratio” value stood at 1.25.
